US20190091177A1, “METHOD OF TREATING SELECTED PATIENT POPULATION EXPERIENCING DRAVET SYNDROME” (ZOGENIX INTERNATIONAL LIMITED, priority 2017, published 2019)
Where two headings read alike, the source gives them in different places.

Experiments:
[1] = tested on: patients with Dravet syndrome; experiment: Study 1: Phase 3 randomized, double blind, placebo controlled study (ZX008-1501/ZX008-1502) of liquid fenfluramine formulation as adjunctive therapy; assay type: in vivo, human
Protocol: The first 119 subjects to be randomized in both identical studies combined were analyzed and reported as Study 1 (FIG. 1), covered by a Statistical Analysis Plan (SAP).
Primary and key secondary endpoints in the Study 1 SAP were pre-determined. All patients were treated twice per day over a period of 14 weeks using an oral syringe to administer the formulation. The treatment period included a two-week titration period and a 12-week maintenance period.
The initial results of Study 1 are outlined below. The randomized, double blind, placebo controlled, Phase 3 study enrolled 119 patients across sites in the United States, Canada, Europe and Australia. The median age of patients was 8 years, the mean age of patients was 9 years (range, 2-18 years) (FIG. 2).
Patients were titrated to their target dose over two weeks, and then remained at that fixed dose for 12 weeks. The mean baseline convulsive seizure frequency across the study groups was approximately 40 seizures per month. 110 (92%) patients completed the study (85% 0.8 mg/kg/day; 100% 0.2 mg/kg/day; 93% placebo).
The proportion of patients who achieved ≥75% seizure reductions, a secondary (non-key) efficacy measure, is also presented.
The mean number of convulsive seizure free days, defined as a day for which diary data are available and no convulsive seizures have been reported, was determined for each treatment group during the Baseline and T+M Periods. Using a parametric analysis, comparisons for the ZX008 groups to placebo were estimated from an ANCOVA model with treatment group (3 levels) and age group (<6 years, ≥6 years) as factors, log baseline number of convulsive seizure free days as a covariate and log convulsive seizure free days (Titration+Maintenance, or Maintenance Period) as response. The mean (SD) number of convulsive seizure free days per 28 days during the Baseline Period was 12.6 (7.68), 15.7 (6.80), and 14.6 (7.59) for the placebo, 0.2 and 0.8 mg/kg/day groups, respectively. […]

[2] = tested on: patients with Dravet syndrome; settings: cited from earlier work; for >50% Reduction in Seizures (patients) / Seizure-free Patients: fenfluramine and valproate, average daily dose 0.34 mg/kg/day for 1 to 22 years, 12 patients, 0.34 mg/kg/day
[3] = long-term fenfluramine treatment

CCNC(C)Cc1cccc(C(F)(F)F)c1 (racemic) [Fenfluramine, (RS)-N-ethyl-1-[3-(trifluoromethyl)phenyl]propan-2-amine]
Mean (SD) non-convulsive seizure frequency per 28 days at the end of the T+M Period ([1]; 0.2 mg/kg/day, baseline 193.6 (478.45)): 93.7 (219.69) per 28 days | Reduction from Baseline in non-convulsive seizure frequency (%, [SD]) ([1]; 0.8 mg/kg/day, end of T+M Period): 59.1% (40.14) | Mean (SD) non-convulsive seizure frequency per 28 days at the end of the T+M Period ([1]; 0.8 mg/kg/day, baseline 335.2 (758.58)): 127.9 (297.39) per 28 days | >50% Reduction in Seizures (patients) [2]: 9/12 (75%) | Seizure-free Patients [2]: 8/12 (66%) | >50% Reduction in Seizures (patients) ([2]; listed as fenfluramine): 75% | Seizure-free Patients ([2]; listed as fenfluramine): 66.6% | Echocardiography monitoring for possible heart valve defects [2, 3]: No clinically relevant defects were identified | Effect on types of seizures [2, 3]: effectively reduced the incidence of all types of seizures
